Laboratory results as given in ChEMBL document CHEMBL4651402, “Screening of ~5500 FDA-approved drugs and clinical candidates for anti-SARS-CoV-2 activity” (2021).

Test system: SARS-CoV-2
Test: microbe, parasite or virus in culture
Details: Severe acute respiratory syndrome coronavirus 2, Vero C1008, 48 h

SMILES: O=C1CN2CCOC2(c2ccccc2Cl)c2cc(Cl)ccc2N1 (stereo not drawn) [CLOXAZOLAM]
- IC50: > 20 µM
- IC50 (read-out: pIC50 (converted)): > 20 µM

SMILES: CC(COc1ccccc1)NC(C)C(O)c1ccc(O)cc1 (stereo not drawn) [ISOXSUPRINE]
- IC50: > 20 µM
- IC50 (read-out: pIC50 (converted)): > 20 µM

SMILES: O=C1Nc2ccc(I)cc2/C1=C/c1cc(Br)c(O)c(Br)c1
- IC50: > 20 µM
- IC50 (read-out: pIC50 (converted)): > 20 µM

SMILES: CO[C@H]1C[C@H](O[C@H]2[C@H](C)[C@@H](O[C@@H]3O[C@H](C)C[C@H](N(C)C)[C@H]3O)[C@@H](C)C[C@@]3(CO3)C(=O)[C@H](C)[C@@H](O)[C@@H](C)[C@@H](C)OC(=O)[C@@H]2C)O[C@@H](C)[C@@H]1O [OLEANDOMYCIN]
- IC50: > 20 µM
- IC50 (read-out: pIC50 (converted)): > 20 µM

SMILES: CCCCN1C[C@H](O)[C@@H](O)[C@H](O)[C@H]1CO
- IC50: > 20 µM
- IC50 (read-out: pIC50 (converted)): > 20 µM

SMILES: COc1ccc(C2C(=O)c3ccccc3C2=O)cc1 [ANISINDIONE]
- IC50: > 20 µM
- IC50 (read-out: pIC50 (converted)): > 20 µM

SMILES: COCC(=O)Nc1c(I)c(C(=O)NCC(O)CO)c(I)c(C(=O)N(C)CC(O)CO)c1I (stereo not drawn) [IOPROMIDE]
- IC50: > 20 µM
- IC50 (read-out: pIC50 (converted)): > 20 µM

SMILES: C#CCC/C(O)=C(\C#N)C(=O)Nc1ccc(C(F)(F)F)cc1
- IC50: > 20 µM
- IC50 (read-out: pIC50 (converted)): > 20 µM

SMILES: N[C@@H](CS)C(=O)O [CYSTEINE]
- IC50: > 20 µM
- IC50 (read-out: pIC50 (converted)): > 20 µM

SMILES: c1ccc2c(c1)CN1CCCC1=N2
- IC50: > 20 µM
- IC50 (read-out: pIC50 (converted)): > 20 µM

SMILES: CCC1(c2ccccc2)C(=O)N(COC)C(=O)N(COC)C1=O [ETEROBARB]
- IC50: > 20 µM
- IC50 (read-out: pIC50 (converted)): > 20 µM

SMILES: CC(=O)Nc1ccc(O)cc1 [ACETAMINOPHEN]
- IC50: > 20 µM
- IC50 (read-out: pIC50 (converted)): > 20 µM

SMILES: CC12C=CC(=O)C=C1CCC1C2C(=O)CC2(C)C1CC[C@]2(O)C(=O)CO (stereo partly drawn)
- IC50: > 20 µM
- IC50 (read-out: pIC50 (converted)): > 20 µM

SMILES: Cc1ccccc1C(=O)Nc1ccc(C(=O)N2CCCC(O)c3cc(Cl)ccc32)c(C)c1 (stereo not drawn) [TOLVAPTAN]
- IC50: > 20 µM
- IC50 (read-out: pIC50 (converted)): > 20 µM

SMILES: C[C@]1(O)CCC2C3CC[C@H]4CC(=O)/C(=C/O)C[C@]4(C)C3CC[C@@]21C (stereo partly drawn)
- IC50: > 20 µM
- IC50 (read-out: pIC50 (converted)): > 20 µM

SMILES: CC[C@H](C)C(=O)O[C@H]1C[C@H](O)C=C2C=C[C@H](C)[C@H](CC[C@@H](O)C[C@@H](O)CC(=O)O)[C@H]21 [PRAVASTATIN]
- IC50: > 20 µM
- IC50 (read-out: pIC50 (converted)): > 20 µM

SMILES: CC(C)(C)NC[C@H](O)COc1cccc2c1CCCC2=O [LEVOBUNOLOL]
- IC50: > 20 µM
- IC50 (read-out: pIC50 (converted)): > 20 µM

SMILES: CCCCNc1ccc(C(=O)OCCOCCOCCOCCOCCOCCOCCOCCOCCOC)cc1 [BENZONATATE]
- IC50: > 20 µM
- IC50 (read-out: pIC50 (converted)): > 20 µM

SMILES: NNCCc1ccccc1 [PHENELZINE]
- IC50: > 20 µM
- IC50 (read-out: pIC50 (converted)): > 20 µM

SMILES: CCC12CCN(CC3CCC3)[C@@H](Cc3ccc(O)cc31)C2(C)C
- IC50: > 20 µM
- IC50 (read-out: pIC50 (converted)): > 20 µM

SMILES: O=C(O)CC(S)C(=O)O (stereo not drawn)
- IC50: > 20 µM
- IC50 (read-out: pIC50 (converted)): > 20 µM

SMILES: CN1CCN(c2nc(C3=C(c4c[nH]c5ccccc45)C(=O)NC3=O)c3ccccc3n2)CC1 [SOTRASTAURIN]
- IC50: > 20 µM
- IC50 (read-out: pIC50 (converted)): > 20 µM

SMILES: O=C(O)c1c(O)c(-c2ccccc2)nc2ccccc12 [OXYCINCHOPHEN]
- IC50: > 20 µM
- IC50 (read-out: pIC50 (converted)): > 20 µM

SMILES: O=C1C(O)=C([C@H]2CC[C@H](c3ccc(Cl)cc3)CC2)C(=O)c2ccccc21 [ATOVAQUONE]
- IC50: > 20 µM
- IC50 (read-out: pIC50 (converted)): > 20 µM

SMILES: CCc1nc2c(C)nc(C)cc2n1-c1ccc(CCNC(=O)NS(=O)(=O)c2ccc(C)cc2)cc1 [GRAPIPRANT]
- IC50: > 20 µM
- IC50 (read-out: pIC50 (converted)): > 20 µM

SMILES: O=C(O)CCCCC1CCSS1 (stereo not drawn) [LIPOIC ACID, ALPHA]
- IC50: > 20 µM
- IC50 (read-out: pIC50 (converted)): > 20 µM

SMILES: N=C(N)N1CCCC(CNC(=O)CC(NS(=O)(=O)c2ccc3ccccc3c2)C(=O)N(CC(=O)O)C2CC2)C1 (stereo not drawn)
- IC50: > 20 µM
- IC50 (read-out: pIC50 (converted)): > 20 µM

SMILES: C[C@@H]1C(=O)O[C@H]2C[C@@]34[C@H]5C[C@@H](C(C)(C)C)[C@]36[C@@H](OC(=O)[C@@H]6O)O[C@@]4(C(=O)O5)[C@]21O [GINKGOLIDE A]
- IC50: > 20 µM
- IC50 (read-out: pIC50 (converted)): > 20 µM

SMILES: NCCCC[C@H](N[C@@H](CCc1ccccc1)C(=O)O)C(=O)N1CCC[C@H]1C(=O)O [LISINOPRIL ANHYDROUS]
- IC50: > 20 µM
- IC50 (read-out: pIC50 (converted)): > 20 µM
